In the experiment the target is T1, human GPR120 (Homo sapiens, UniProt Q5NUL3).
T1 construct: expressed in transfected cells; host or cells: CHOA12 cells or CHO-K1 cells, stably transfected
T1 sequence (Q5NUL3 1-361): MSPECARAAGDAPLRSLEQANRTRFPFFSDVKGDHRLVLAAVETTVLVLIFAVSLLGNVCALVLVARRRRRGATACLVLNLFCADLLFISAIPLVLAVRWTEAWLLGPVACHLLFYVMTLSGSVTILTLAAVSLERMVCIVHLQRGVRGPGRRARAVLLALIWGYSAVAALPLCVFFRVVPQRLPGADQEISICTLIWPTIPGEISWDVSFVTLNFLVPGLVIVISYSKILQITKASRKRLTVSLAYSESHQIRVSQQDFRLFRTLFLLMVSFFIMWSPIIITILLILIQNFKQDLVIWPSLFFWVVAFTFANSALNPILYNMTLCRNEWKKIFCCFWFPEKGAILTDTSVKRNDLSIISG
The experiment in a line: GPR120 pERK AlphaScreen SureFire Assay (human GPR120 pERK assay). It is filed as cell-based. To be noted: CHO cells stably transfected with the short form of human GPR120 receptor. The source says: GPR120 activity was monitored by measuring phosphorylation of ERK (pERK), since G protein receptors are known to activate the ERK signaling cascade either directly and/or through recruitment of arrestin that serves as a scaffold for downstream signaling events.
GPR120 pERK AlphaScreen SureFire Assay
The human and mouse GPR120-mediated intracellular phosphorylated ERK assays were established using CHOAl2 cells stably transfected with the short form of human or mouse GPR120 receptor. Cells were cultured in growth medium consisting of F-12 media (Invitrogen Cat. #11765) with 5% Charcoal/Dextran FBS (Invitrogen Cat. #12676-029), 500 μg/mL GENETICIN® (Life Technologies Cat. #10131-027) and 250 μg/mL Zeocin (Invitrogen Cat. #R250-01). Cells were cryo preserved at a concentration of 2×10^7 cells/mL, in 90% Charcoal/Dextran FBS and 10% DMSO, and frozen in liquid nitrogen at a low passage number.
For the pERK assay, 2×10^7 cells/mL cryopreserved human and mouse cells were thawed rapidly in a 37° C. water bath and added to a T-225 flask containing 50 mL growth medium. The flasks were placed in a tissue culture incubator overnight (37° C., 5% CO2). The next day, cells were harvested with trypsin (Gibco Cat. #25300-054), resuspended in serum-containing growth medium and counted using a Cellometer and volume adjusted to a concentration of 0.6×10^6cells/mL. Cells were plated into 384-well clear bottom tissue culture plates (BD Cat. #353962) at 50 μL/well, for a density of 30,000 cells/well using a MULTIDROP® and incubated for 16-18 hours (overnight) at 37° C. with 5% CO2. The next day, cells were serum starved in 30 μL of F-12 media without any serum or antibiotics for 2 hours at 37° C.
Test compounds were 3-fold, 11-point serially diluted in DMSO in a REMP assay plate (Matrix Cat. #4307) by Tecan and 5 μL was transferred into an ECHO source plate (Labcyte Cat. #LC-0200). Cells were then stimulated with 50 nL of compound dilutions using ECHO liquid handler for 7 minutes at 37° C. Compounds ranged from final assay concentrations of 33.33 μM to 0.56 nM.
The media was then dumped and cells lysed with 20 μL of 1× Lysis buffer from the AlphaScreen SureFire Phospho-ERK 1/2 Kit (Perkin Elmer Cat. #6760617M). The lysis buffer was diluted 5-fold with water before use. The plate was agitated on a shaker for 10 minutes after which 2 μL was transferred into a 384-well white proxiplate (Perkin Elmer Cat. #6008289). The SureFire assay reagent mix was prepared by mixing 60 parts Reaction Buffer, 10 parts Activation Buffer, 1 part Donor Beads, 1 part Acceptor Beads (Perkin Elmer Cat. #TGRES10K). 3.5 μL/well of this reagent mix was manually added to the proxiplate with a multichannel pipettor. Plates were spun down at 1000 rpm for 2 minutes, followed by light-protected incubation at room temperature for 2 hours. The plates were read on the Alpha-technology compatible Envision multilabel plate reader using AlphaScreen protocol according to manufacturer's specifications. The agonist effect of compounds was expressed as 100×(average sample-average blank)/(average total−average blank) where sample is the luminescence activity in the presence of test compound, blank is equal to the luminescence activity in the presence of DMSO control and the total is signal induced by 50 μM linolenic acid as reference compound. Activation data for the test compound over a range of concentrations was plotted as percentage activation of the test compound (100%=maximum response). After correcting for background, EC50 values were determined. The EC50 is defined as the concentration of test compound which produces 50% of the maximal response and was quantified using the 4 parameter logistic equation to fit the data.
The human and mouse GPR120-mediated intracellular phosphorylated ERK assays were also established using CHO-K1 cells stably transfected with the short form of human or mouse GPR120 receptor. […]
A general note: Alpha assays give light when donor and acceptor beads are brought close together.

For orientation: EC50 means the concentration needed to bring the measured effect to its halfway point. Read a high EC50 as a less potent agent. Regarding `CC1(C)Cc2cc(Cl)cc(COC34CCC(CCC(=O)O)(CC3)CC4)c2O1` [Example 1, 3-(4-((5-Chloro-2,2-dimethyl-2,3-dihydrobenzofuran-7-yl)methoxy)bicyclo[2.2.2]octan-1-yl)propanoic acid], the EC50 was determined as 610 nM.
Next, `CC1(C)Cc2cc(Cl)cc(COC34CCC(CCCC(=O)O)(CC3)CC4)c2O1` [Example 2, 4-(4-((5-Chloro-2,2-dimethyl-2,3-dihydrobenzofuran-7-yl)methoxy)bicyclo[2.2.2]octan-1-yl)butanoic acid]: 2470 nM; `N#Cc1cccc(OC23CCC(CCCC(=O)O)(CC2)CC3)c1` [Example 3, 4-(4-(3-Cyanophenoxy)bicyclo[2.2.2]octan-1-yl)butanoic acid]: 1110 nM; `Cc1cc(COC23CCC(CCC(=O)O)(CC2)CC3)n(-c2ccc(Cl)cc2)n1` [Example 4, 3-(4-((1-(4-Chlorophenyl)-3-methyl-1H-pyrazol-5-yl)methoxy)bicyclo[2.2.2]octan-1-yl)propanoic acid]: 2740 nM.
To `O=C(O)CCC12CCC(OCc3cccc(Oc4ccccc4)c3)(CC1)CC2` [Example 5, 3-(4-(3-Phenoxy-benzyloxy)bicyclo[2.2.2]octan-1-yl)propanoic acid] belongs 430 nM; to `O=C(O)CCC12CCC(OCc3ccccc3Oc3ccccc3)(CC1)CC2` [Example 6, 3-(4-(2-Phenoxy-benzyloxy)bicyclo[2.2.2]octan-1-yl)propanoic acid], 400 nM; to `COc1cccc(COC23CCC(CCCC(=O)O)(CC2)CC3)c1` [Example 7, 4-(4-(3-Methoxy-benzyloxy)bicyclo[2.2.2]octan-1-yl)butanoic acid], 6910 nM.
Next, `O=C(O)CCC12CCC(OCc3cc(F)cc(Oc4ccccc4)c3)(CC1)CC2` [Example 8, 3-(4-(3-Fluoro-5-phenoxy-benzyloxy)bicyclo [2.2.2]octan-1-yl)propanoic acid]: 270 nM.
The compound `O=C(O)CCC12CCC(OCc3cc(F)ccc3Oc3ccccc3)(CC1)CC2` [Example 9, 3-(4-(5-Fluoro-2-phenoxybenzyloxy)bicyclo[2.2.2]octan-1-yl)propanoic acid] had an EC50 of 280 nM.
In turn, `O=C(O)COCC12CCC(OCc3cccc(Oc4ccccc4)c3)(CC1)CC2` [Example 10, 2-((4-(3-Phenoxybenzyloxy)bicyclo[2.2.2]octan-1-yl)methoxy)acetic acid] gave an EC50 of 680 nM.
In turn, `CC(C)Oc1cc(F)cc(COC23CCC(CCC(=O)O)(CC2)CC3)c1` [Example 11, 3-(4-(3-Fluoro-5-isopropoxybenzyloxy)bicyclo[2.2.2]octan-1-yl)propanoic acid] had an EC50 of 870 nM.
In the case of `O=C(O)CCC12CCC(OCc3cc(F)cc(Oc4ccc(F)cc4)c3)(CC1)CC2` [Example 12, 3-(4-(3-Fluoro-5-(4-fluorophenoxy)benzyloxy)bicyclo[2.2.2]octan-1-yl)propanoic acid], the EC50 turned out to be 540 nM.
Next, `CC1(C)Cc2cc(Cl)cc(OCC34CCC(/C=C/C(=O)O)(CC3)CC4)c2O1` [Example 13, (E)-3-(4-(((5-Chloro-2,2-dimethyl-2,3-dihydrobenzofuran-7-yl)oxy)methyl)bicyclo[2.2.2]octan-1-yl)acrylic acid]: 2690 nM.
To `CC1(C)Cc2cccc(OCC34CCC(CCC(=O)O)(CC3)CC4)c2O1` [Example 14, 3-(4-(((2,2-Dimethyl-2,3-dihydrobenzofuran-7-yl)oxy)methyl)bicyclo[2.2.2]octan-1-yl)propanoic acid] belongs 900 nM; to `CC1(C)Cc2cc(Cl)cc(OCC34CCC(CCC(=O)O)(CC3)CC4)c2O1` [Example 15, 3-(4-(((5-Chloro-2,2-dimethyl-2,3-dihydrobenzofuran-7-yl)oxy)methyl)bicyclo[2.2.2]octan-1-yl)propanoic acid], 1340 nM.

The record behind these values is patent publication US9598390B2, “Bicyclo[2.2.2]acid GPR120 modulators” (BRISTOL-MYERS SQUIBB COMPANY, priority 2013, dated 2017).
